{
  "source": "paper PMC6585941",
  "about": "(SLAS discovery : advancing life sciences R & D, 2018)",
  "key": {"Recombinant human IDE": {"molecular_target": "T1, Recombinant human IDE (Homo sapiens, UniProt P14735)", "T1 sequence (P14735 1-1019)": "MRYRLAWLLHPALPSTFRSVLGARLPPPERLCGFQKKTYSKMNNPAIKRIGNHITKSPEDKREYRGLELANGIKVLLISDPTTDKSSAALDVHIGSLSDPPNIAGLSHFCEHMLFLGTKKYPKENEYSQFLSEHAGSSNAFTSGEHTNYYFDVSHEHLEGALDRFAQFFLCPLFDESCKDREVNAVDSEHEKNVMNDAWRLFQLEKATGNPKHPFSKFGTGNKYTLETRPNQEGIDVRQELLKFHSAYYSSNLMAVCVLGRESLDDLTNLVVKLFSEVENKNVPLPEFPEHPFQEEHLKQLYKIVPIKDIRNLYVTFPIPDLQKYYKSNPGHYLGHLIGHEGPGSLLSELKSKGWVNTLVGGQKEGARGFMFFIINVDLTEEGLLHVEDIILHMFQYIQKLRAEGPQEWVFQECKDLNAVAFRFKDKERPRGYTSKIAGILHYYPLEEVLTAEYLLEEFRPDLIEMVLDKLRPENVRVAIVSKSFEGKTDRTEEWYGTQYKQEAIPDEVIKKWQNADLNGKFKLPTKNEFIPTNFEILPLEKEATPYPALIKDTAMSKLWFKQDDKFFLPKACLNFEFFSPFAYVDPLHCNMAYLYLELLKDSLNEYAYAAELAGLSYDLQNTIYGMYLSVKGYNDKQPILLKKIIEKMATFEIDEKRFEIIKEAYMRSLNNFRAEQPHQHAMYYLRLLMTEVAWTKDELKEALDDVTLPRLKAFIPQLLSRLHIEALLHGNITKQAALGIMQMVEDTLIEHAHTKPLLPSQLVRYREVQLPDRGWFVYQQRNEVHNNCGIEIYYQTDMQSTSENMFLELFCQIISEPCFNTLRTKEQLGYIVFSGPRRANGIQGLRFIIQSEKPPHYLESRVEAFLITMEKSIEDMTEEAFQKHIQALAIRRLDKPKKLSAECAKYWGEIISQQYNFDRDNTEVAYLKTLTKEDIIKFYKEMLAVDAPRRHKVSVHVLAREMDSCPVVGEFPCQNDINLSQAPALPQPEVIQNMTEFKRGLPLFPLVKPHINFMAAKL", "assay": "Fluorescence polarization", "type": "biochemical"}, "purified recombinant IDE": {"system": "purified recombinant IDE", "conditions": "same form of purified recombinant IDE; cited from earlier work"}, "[1]": {"system": "semi-purified protease purified from rat liver, inferred to be IDE", "conditions": "protease purified by affinity chromatography from rat liver; cited from earlier work"}, "[2]": {"conditions": "ML345 50 nM, FP-based assay, mean ± SD of 3 independent runs"}},
  "data": [
    {"compound": "O=c1c2cc(F)ccc2sn1-c1cc(S(=O)(=O)N2CCOCC2)ccc1N1CCOCC1", "note": "[ML345]", "values": [
      {"measurement": "KM^app of FBG degradation in presence of inhibitor", "setting": "Recombinant human IDE; [2]", "result": "0.392 ± 0.073", "unit": "µM"},
      {"measurement": "vmax^app of FBG degradation in presence of inhibitor", "setting": "Recombinant human IDE; [2]", "result": "0.827 ± 0.032", "unit": "nM/s"},
      {"measurement": "mechanism of inhibition of IDE", "setting": "Recombinant human IDE; kinetics analyses, Lineweaver-Burk plots, P12–3A 5 µM or ML345 50 nM", "result": "irreversible"}
    ]},
    {"compound": "insulin", "values": [
      {"measurement": "kcat of degradation by IDE", "setting": "purified recombinant IDE", "result": 0.025, "unit": "s⁻¹"}
    ]},
    {"compound": "bacitracin", "values": [
      {"measurement": "inhibition of the purified protease", "setting": "[1]", "result": "susceptible to inhibition"}
    ]}
  ]
}
